In patent publication US11938104B1, “Compositions and methods for prevention and treatment of coronavirus and related disorders” (Abrexa Pharmaceuticals, Inc., priority 2021, dated 2024):
Where two headings read alike, the source gives them in different places.

Legend:
SD rats = settings: rat, in vivo
Male SD rats = experiment: J147 dose-response, 2-hour suture MCAO-induced ischemia followed by reperfusion, 72 h (Example 3); assay type: in vivo, rat
male Sprague Dawley rats = assay type: in vivo, rat
[1] = J147 1.0, 10, 30 mg/kg at 2 hours after onset of ischemia, 72 h after stroke, dose-dependent manner

`COc1cccc(/C=N/N(C(=O)C(F)(F)F)c2ccc(C)cc2C)c1` [Compound J147] was tested, and the “protection from stroke in the absence of reperfusion (infarction, TTC-stained sections)” value (SD rats) was “fails to provide any significant protection”, the “effective optimal dose for the treatment of acute ischemic stroke in rats” value (Male SD rats; 1.0, 10, 30 mg/kg tested) was 10 mg/kg and the infarct volumes (Male SD rats; [1]) was “significantly reduced”. The “neurological deficit after reperfusion (Bederson score)” value (Male SD rats; [1]) was “significantly reduced”, the optimal effective dose (male Sprague Dawley rats; iv, doses of 1, 10 and 30 mg/kg tested) was 10 mg/kg and the “infarct volume (TTC-stained sections)” value (male Sprague Dawley rats; rat, in vivo) was “large reduction”. The “infarct volume relative to placebo (TTC-stained sections)” value (male Sprague Dawley rats; rat, in vivo) was “insignificant reduction” and the “infarct volume (TTC-stained sections)” value (male Sprague Dawley rats; rat, in vivo, ip) was “modest reduction”.
